For 27 compounds, EC50 results are on record in patent US9266835B2, “Quinoline derivatives useful as CB-1 inverse agonists” (JANSSEN PHARMACEUTICA NV, priority 2014, dated 2016).

Experiment [1] concerns the target Human CB1R (Cannabinoid receptor 1) (Homo sapiens (Human), UniProt P21554). The experiment in a line: CB-1 in vitro cAMP assay (HTRF), inverse agonism. The format is cell-based. The settings on record: mean where tested more than once. On the technique in general: cAMP levels reflect the balance of adenylyl cyclase and phosphodiesterase activity.
For experiment [2], the target named is Human CB2R (Cannabinoid receptor 2) (Homo sapiens (Human), UniProt P34972). The experiment in a line: CB-2 in vitro cAMP assay (HTRF), inverse agonism. The format is cell-based. As to conditions: mean where tested more than once.

The structures appear in SMILES notation. Counter-ions that a name gives are not always drawn.

Chain of Human CB1R (Cannabinoid receptor 1) (P21554 whole entry): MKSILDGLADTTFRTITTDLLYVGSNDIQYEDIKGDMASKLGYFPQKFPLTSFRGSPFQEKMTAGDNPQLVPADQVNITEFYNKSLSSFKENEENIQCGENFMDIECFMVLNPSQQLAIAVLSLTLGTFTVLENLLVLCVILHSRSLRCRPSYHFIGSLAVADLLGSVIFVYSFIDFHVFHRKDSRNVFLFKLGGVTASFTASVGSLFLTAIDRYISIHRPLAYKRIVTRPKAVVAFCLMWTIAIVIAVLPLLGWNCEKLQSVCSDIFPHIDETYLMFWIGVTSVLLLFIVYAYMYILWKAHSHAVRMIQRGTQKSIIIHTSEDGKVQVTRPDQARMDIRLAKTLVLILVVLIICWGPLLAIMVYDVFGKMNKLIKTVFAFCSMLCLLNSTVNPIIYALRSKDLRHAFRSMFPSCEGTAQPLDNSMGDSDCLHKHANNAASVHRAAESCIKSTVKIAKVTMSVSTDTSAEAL
Chain of Human CB2R (Cannabinoid receptor 2) (P34972 whole entry): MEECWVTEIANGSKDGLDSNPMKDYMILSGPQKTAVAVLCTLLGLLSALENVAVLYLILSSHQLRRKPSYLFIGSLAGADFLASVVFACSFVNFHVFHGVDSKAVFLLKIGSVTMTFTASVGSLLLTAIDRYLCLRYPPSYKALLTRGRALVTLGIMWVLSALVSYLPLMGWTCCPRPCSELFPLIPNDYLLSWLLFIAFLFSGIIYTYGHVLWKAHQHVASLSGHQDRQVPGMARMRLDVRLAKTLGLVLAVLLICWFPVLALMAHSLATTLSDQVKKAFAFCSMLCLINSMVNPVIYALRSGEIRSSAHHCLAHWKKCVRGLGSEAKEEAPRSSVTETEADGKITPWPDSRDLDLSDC

For the compound `COc1ccc(C(c2ccc(Cl)cc2)c2ccc3[nH]c(=O)cc(/C=C/c4ccccc4)c3c2)cc1` (stereo not drawn) [Compound 514, (E)-6-((4-chlorophenyl)(4-methoxyphenyl)methyl)-4-styrylquinolin-2(1H)-one], the EC50 in experiment [1] was 426 nM; in experiment [2] it was over 10000 nM.
For `O=c1cc(Cc2ccc(OC(F)(F)F)cc2)c2cc(C(c3ccc(Cl)cc3)c3nccs3)ccc2[nH]1` (stereo not drawn) [Compound 515, 6-((4-chlorophenyl)(thiazol-2-yl)methyl)-4-(4-(trifluoromethoxy)benzyl)quinolin-2(1H)-one], in that order: 366 nM and over 10000 nM.
For `OC(c1ccc(Cl)cc1)(c1ccc2nccc(/C=C/c3ccccc3)c2c1)c1cscn1` (stereo not drawn) [Compound 517, (E)-(4-chlorophenyl)(4-styrylquinolin-6-yl)(thiazol-4-yl)methanol], in that order: 884 nM and 340 nM.
With `CC(C)(C)Oc1cc(/C=C/c2cccc(F)c2)c2cc(C(O)(c3ccc(Cl)cc3)c3ccsc3)ccc2n1` (stereo not drawn) [Compound 518, (E)-(2-(tert-butoxy)-4-(3-fluorostyryl)quinolin-6-yl)(4-chlorophenyl)(thiophen-3-yl)methanol], the EC50 in experiment [1] was over 10000 nM; in experiment [2], 540 nM.
As to `O=S(=O)(Oc1cc(C2=CCN(S(=O)(=O)C(F)(F)F)CC2)c2cc(C(c3ccc(Cl)cc3)c3ccc(Cl)cc3)ccc2n1)C(F)(F)F` [Compound 519, 6-(bis(4-chlorophenyl)methyl)-4-(1-((trifluoromethyl)sulfonyl)-1,2,3,6-tetrahydropyridin-4-yl)quinolin-2-yl trifluoromethanesulfonate], the values for the EC50 in experiment [1] and in experiment [2] were over 10000 nM and 40 nM, respectively.
For `Clc1ccc(C(c2ccc3nccc(/C=C/c4ccccc4)c3c2)c2cscn2)cc1` (stereo not drawn) [Compound 520, 6-[(4-Chlorophenyl)(1,3-thiazol-4-yl)methyl]-4-[(E)-2-phenylethenyl]quinoline], in that order: 169 nM and over 10000 nM.
The corresponding values for `FC(F)(F)c1ccc(/C=C/c2ccnc3ccc(C(c4ccc(Cl)cc4)c4ccc(Cl)cc4)cc23)cc1` [Compound 521, 6-[Bis(4-chlorophenyl)methyl]-4-{(E)-2-[4-(trifluoromethyl)phenyl]-ethenyl}quinoline] are 213 nM and over 10000 nM.
Take `CC(=O)N1CCN(c2cc(OS(=O)(=O)C(F)(F)F)nc3ccc(C(c4ccc(Cl)cc4)c4nccs4)cc23)CC1` (stereo not drawn) [Compound 522, 4-(4-Acetylpiperazin-1-yl)-6-[(4-chlorophenyl)(1,3-thiazol-2-yl)methyl]quinolin-2-yl trifluoromethanesulfonate]: the EC50 in experiment [1] and in experiment [2] was over 10000 nM in each case.
As for `O=S(=O)(N1CCC(Nc2ccnc3c(Br)cc(C(c4ccc(Cl)cc4)c4ccc(Cl)cc4)cc23)CC1)C(F)(F)F` [Compound 524, 6-(bis(4-chlorophenyl)methyl)-8-bromo-N-(1-((trifluoromethyl)sulfonyl)piperidin-4-yl)quinolin-4-amine], the results for the EC50 in experiment [1] and in experiment [2] were 12 nM and 180 nM, respectively.
Consider `CCOC(=O)CCCNc1cc(C(O)(c2ccc(Cl)cc2)c2ccc(Cl)cc2)cc2c(NC3CCN(S(=O)(=O)C(F)(F)F)CC3)cc(OC(C)(C)C)nc12` [Compound 529, Ethyl 4-({6-[bis(4-chlorophenyl)(hydroxy)methyl]-2-tert-butoxy-4-({1-[(trifluoromethyl)sulfonyl]-piperidin-4-yl}amino)quinolin-8-yl}amino)butanoate], for which the EC50 in experiment [1] and in experiment [2] was over 10000 nM each time.
Turning to `COCCOc1cc(NC2CCN(S(=O)(=O)C(F)(F)F)CC2)c2cc(C(c3ccc(Cl)cc3)c3ccc(Cl)cc3)ccc2n1` [Compound 530, 6-(bis(4-chlorophenyl)methyl)-2-(2-methoxyethoxy)-N-(1-((trifluoromethyl)sulfonyl)piperidin-4-yl)quinolin-4-amine], the EC50 in experiment [1] was 23 nM; in experiment [2], over 10000 nM.
The corresponding values for `CC(C)(C)OC(=O)COc1cc(NC2CCN(S(=O)(=O)C(F)(F)F)CC2)c2cc(C(c3ccc(Cl)cc3)c3ccc(Cl)cc3)ccc2n1` [Compound 531, tert-Butyl ({6-[bis(4-chlorophenyl)methyl]-4-({1-[(trifluoromethyl)sulfonyl]-piperidin-4-yl}amino)quinolin-2-yl}oxy)acetate] are over 10000 nM and over 10000 nM.
The corresponding values for `O=C(O)COc1cc(NC2CCN(S(=O)(=O)C(F)(F)F)CC2)c2cc(C(c3ccc(Cl)cc3)c3ccc(Cl)cc3)ccc2n1` [Compound 532, ({6-[Bis(4-chlorophenyl)methyl]-4-({1-[(trifluoromethyl)sulfonyl]-piperidin-4-yl}amino)quinolin-2-yl}oxy)acetic acid] are 1280 nM and 6700 nM.
Regarding `CNC(=O)COc1cc(NC2CCN(S(=O)(=O)C(F)(F)F)CC2)c2cc(C(c3ccc(Cl)cc3)c3ccc(Cl)cc3)ccc2n1` [Compound 533, 2-({6-[Bis(4-chlorophenyl)methyl]-4-({1-[(trifluoromethyl)sulfonyl]-piperidin-4-yl}amino)quinolin-2-yl}oxy)-N-methylacetamide], the figures for the EC50 in experiment [1] and in experiment [2] were 38 nM and over 10000 nM, respectively.
The corresponding values for `COC(=O)CCCCCOc1cc(NC2CCN(S(=O)(=O)C(F)(F)F)CC2)c2cc(C(c3ccc(Cl)cc3)c3ccc(Cl)cc3)ccc2n1` [Compound 534, Methyl 6-({6-[bis(4-chlorophenyl)methyl]-4-({1-[(trifluoromethyl)sulfonyl]-piperidin-4-yl}amino)quinolin-2-yl}oxy)hexanoate] are 2200 nM and over 10000 nM.
`O=C(O)CCCCCOc1cc(NC2CCN(S(=O)(=O)C(F)(F)F)CC2)c2cc(C(c3ccc(Cl)cc3)c3ccc(Cl)cc3)ccc2n1` [Compound 535, 6-({6-[Bis(4-chlorophenyl)methyl]-4-({1-[(trifluoromethyl)sulfonyl]-piperidin-4-yl}amino)quinolin-2-yl}oxy)hexanoic acid]: the 50% effective concentration (EC50) worked out at 92 nM in experiment [1] and 60 nM in experiment [2].
For `COc1cc(C(c2ccc(Cl)cc2)c2ccc(Cl)cc2)cc2c(NC3CCN(S(=O)(=O)C(F)(F)F)CC3)ccnc12` [Compound 536, 6-[bis(4-chlorophenyl)methyl]-8-methoxy-N-[1-(trifluoromethane)sulfonylpiperidin-4-yl]quinolin-4-amine], in that order: 100 nM and 204 nM.
As for `O=C(O)CCCCOc1cc(C(c2ccc(Cl)cc2)c2ccc(Cl)cc2)cc2c(NC3CCN(S(=O)(=O)C(F)(F)F)CC3)ccnc12` [Compound 537, 5-((6-(bis(4-chlorophenyl)methyl)-4-((1-((trifluoromethyl)sulfonyl)piperidin-4-yl)amino)quinolin-8-yl)oxy)pentanoic acid], the concentration for a half-maximal effect (EC50) was found to be 108 nM in experiment [1] and 2380 nM in experiment [2].
Take `NC(=O)CCCCOc1cc(C(c2ccc(Cl)cc2)c2ccc(Cl)cc2)cc2c(NC3CCN(S(=O)(=O)C(F)(F)F)CC3)ccnc12` [Compound 538, 5-((6-(bis(4-chlorophenyl)methyl)-4-((1-((trifluoromethyl)sulfonyl)piperidin-4-yl)amino)quinolin-8-yl)oxy)pentanamide]: the results for the EC50 in experiment [1] and in experiment [2] were 51 nM and 8630 nM, respectively.
On to `CC(C)(C)OC(=O)NCCCCOc1cc(C(c2ccc(Cl)cc2)c2ccc(Cl)cc2)cc2c(NC3CCN(S(=O)(=O)C(F)(F)F)CC3)ccnc12` [Compound 539, tert-butyl (4-((6-(bis(4-chlorophenyl)methyl)-4-((1-((trifluoromethyl)sulfonyl)piperidin-4-yl)amino)quinolin-8-yl)oxy)butyl)carbamate], for which the EC50 was 96 nM in experiment [1] and over 21000 nM in experiment [2].
The corresponding values for `CCOC(=O)CCCCOc1cc(C(c2ccc(Cl)cc2)c2ccc(Cl)cc2)cc2c(NC3CCN(S(=O)(=O)C(F)(F)F)CC3)ccnc12` [Compound 540, ethyl 5-((6-(bis(4-chlorophenyl)methyl)-4-((1-((trifluoromethyl)sulfonyl)piperidin-4-yl)amino)quinolin-8-yl)oxy)pentanoate] are 81 nM and 7100 nM.
Take `O=S(=O)(N1CCC(Nc2ccnc3c(O)cc(C(c4ccc(Cl)cc4)c4ccc(Cl)cc4)cc23)CC1)C(F)(F)F` [Compound 541, 6-(bis(4-chlorophenyl)methyl)-4-((1-((trifluoromethyl)sulfonyl)piperidin-4-yl)amino)quinolin-8-ol]: the EC50 in experiment [1] was 339 nM; in experiment [2], over 10000 nM.
In the case of `NCCCCOc1cc(C(c2ccc(Cl)cc2)c2ccc(Cl)cc2)cc2c(NC3CCN(S(=O)(=O)C(F)(F)F)CC3)ccnc12` [Compound 542, 8-(4-aminobutoxy)-6-(bis(4-chlorophenyl)methyl)-N-(1-((trifluoromethyl)sulfonyl)piperidin-4-yl)quinolin-4-amine, trifluoroacetic acid salt], the half-maximal effective concentration (EC50) is 144 nM in experiment [1] and over 10000 nM in experiment [2].
In the case of `CC(=O)NCCCCOc1cc(C(c2ccc(Cl)cc2)c2ccc(Cl)cc2)cc2c(NC3CCN(S(=O)(=O)C(F)(F)F)CC3)ccnc12` [Compound 543, N-(4-((6-(bis(4-chlorophenyl)methyl)-4-((1-((trifluoromethyl)sulfonyl)piperidin-4-yl)amino)quinolin-8-yl)oxy)butyl)acetamide, trifluoroacetic acid salt], the EC50 is 102 nM in experiment [1] and over 10000 nM in experiment [2].
For `CCOC(=O)COc1cc(C(c2ccc(Cl)cc2)c2ccc(Cl)cc2)cc2c(NC3CCN(S(=O)(=O)C(F)(F)F)CC3)cc(=O)[nH]c12` [Compound 544], in that order: 126 nM and 3400 nM.
For the compound `O=C(O)COc1cc(C(c2ccc(Cl)cc2)c2ccc(Cl)cc2)cc2c(NC3CCN(S(=O)(=O)C(F)(F)F)CC3)cc(=O)[nH]c12` [Compound 545], the EC50 in experiment [1] was 4900 nM; in experiment [2] it was over 10000 nM.
Take `COc1cc(NC2CCN(S(=O)(=O)C(F)(F)F)CC2)c2cc(C(c3ccc(Cl)cc3)c3ccc(Cl)cc3)cc(Br)c2n1` [Compound 546, 6-(bis(4-chlorophenyl)methyl)-8-bromo-2-methoxy-N-(1-((trifluoromethyl)sulfonyl)piperidin-4-yl)quinolin-4-amine]: the EC50 in experiment [1] was found to be 121 nM; in experiment [2], 4800 nM.

The EC50 is the concentration at which the effect is half-maximal. A higher EC50 goes with a need for much substance.
